# Assays:
# Adenosine A2 receptor [1] = molecular target: T1, Adenosine A2 receptor (Rattus norvegicus, UniProt P29276+P30543); assay: Binding affinity against adenosine A2 receptor in rat striatum by using [3H]NECA as a radioligand; type: tissue-based
# [2] = molecular target: Adenosine receptors; A1 & A2 (Rattus norvegicus) (UniProt P29276+P25099+P30543); assay: It is the ratio of Ki value of A1 receptor to that of A2 receptor.; type: protein assay
# [3] = Hydrophobicity index; type: ADME
# Adenosine receptor A1 = molecular target: T2, Adenosine receptor A1 (Rattus norvegicus, UniProt P25099); assay: Binding affinity against adenosine A1 receptor in rat cortex by using [3H]- PIA as a radioligand; type: tissue-based
# T2 sequence (P25099 whole entry): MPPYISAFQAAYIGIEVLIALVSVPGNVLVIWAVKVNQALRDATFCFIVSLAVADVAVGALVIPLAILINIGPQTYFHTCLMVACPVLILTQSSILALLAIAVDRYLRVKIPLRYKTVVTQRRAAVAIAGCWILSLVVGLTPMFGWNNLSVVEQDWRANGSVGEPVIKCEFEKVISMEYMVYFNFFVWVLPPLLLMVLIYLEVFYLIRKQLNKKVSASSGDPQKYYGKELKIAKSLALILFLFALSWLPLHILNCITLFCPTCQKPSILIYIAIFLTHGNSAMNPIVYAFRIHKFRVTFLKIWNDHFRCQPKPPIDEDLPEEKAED
# Adenosine A2 receptor [4] = molecular target: T1, Adenosine A2 receptor; assay: Tested for inhibition of rat PC12 adenylate cyclase stimulation by using NECA as a radioligand; type: cell-based; settings: pc-12
# [5] = molecular target: T3, Adenosine receptor A1 (Rattus norvegicus) (UniProt P25099); settings: 100 uM
# T3 sequence (whole entry): T2 sequence (P25099 whole entry)
# Description: Inhibition of [3H]PIA binding to adenosine A1 receptor of rat cortex at 100 uM
SMILES,Ki (Adenosine A2 receptor [1]) [µM],Selectivity ratio [2],k' [3],Ki (Adenosine receptor A1) [µM],Ki (Adenosine A2 receptor [4]) [µM],Inhibition [5] [%]
OCCn1cnc2c(NC3CCCC3)ncnc21,47,14,0.68,3.3,27,
CC[C@H](Nc1nc(Cl)nc2c1ncn2C)c1ccccc1,12,4.3,,2.8,17,
Nc1ncnc2c1ncn2CCO,46,< 0.5,0.04,> 100,12,30
Nc1ncnc2c1ncn2-c1ccccc1,38,2,0.56,19,74,
CCn1cnc2c(N)ncnc21,8.8,0.19,0.39,,5.6,
Cn1cnc2c(NC3CCCC3)ncnc21,11,26,1.29,,25,
Cn1cnc2c(Nc3ccccc3)ncnc21,68,9.9,,6.9,107,
CC[C@H](Nc1ncnc2c1ncn2-c1ccccc1)c1ccccc1,18,2.5,,7.2,9.9,
CC[C@@H](Nc1nc(Cl)nc2c1ncn2C)c1ccccc1,6.8,2.1,,3.3,4.3,
c1ccc(Nc2ncnc3c2ncn3-c2ccccc2)cc1,111,16,,6.9,50,
c1nc(NC2CCCC2)c2ncn(C3CCCC3)c2n1,19,16,4.99,1.2,5.1,
Nc1ncnc2c1ncn2C1CCCO1 (stereo not given),23,0.82,0.21,,2.4,
CCn1cnc2c(NC3CCCC3)ncnc21,17,39,1.66,,10.3,
CC[C@@H](Nc1ncnc2c1ncn2C)c1ccccc1.Cl,55,22,,2.5,25,
CC[C@H](Nc1ncnc2c1ncn2C)c1ccccc1.Cl,84,7.6,,11,74,
Nc1ncnc2c1ncn2C1CCCC1,8.2,4.6,1.94,1.8,3.4,
c1ccc(-n2cnc3c(NC4CCCC4)ncnc32)cc1,79,9.1,3.91,8.7,47,
Cn1cnc2c(Nc3ccccc3)nc(Cl)nc21,31,4.4,,7,21,
c1nc(NC2CCCC2)c2ncn(C3CCCO3)c2n1 (stereo not given),39,23,1.81,1.7,30,
Cn1cnc2c(NC3CCCCC3)ncnc21,13,14,,,21,
Cn1cnc2c(N)ncnc21,15,0.22,0.11,69,24,
CC[C@@H](Nc1ncnc2c1ncn2-c1ccccc1)c1ccccc1,15,3.2,,4.7,11,
CCn1cnc2c(NC3CCCCC3)ncnc21,11,5.5,,2,8.5,
Cn1cnc2c(N)nc(Cl)nc21,11,0.48,0.22,23,16,
Cn1cnc2c(NC3CCCC3)nc(Cl)nc21,9.3,18,3.37,0.53,6.3,

# Source: ChEMBL document CHEMBL1125213 (J Med Chem, 1991)
